The source made the active and inactive calls. The calls are words filed in the database; no cut-off is given here.

The subject of one assay is T1, Translin-associated protein X (Homo sapiens), Q99598 [E126A].
T1 sequence (whole entry): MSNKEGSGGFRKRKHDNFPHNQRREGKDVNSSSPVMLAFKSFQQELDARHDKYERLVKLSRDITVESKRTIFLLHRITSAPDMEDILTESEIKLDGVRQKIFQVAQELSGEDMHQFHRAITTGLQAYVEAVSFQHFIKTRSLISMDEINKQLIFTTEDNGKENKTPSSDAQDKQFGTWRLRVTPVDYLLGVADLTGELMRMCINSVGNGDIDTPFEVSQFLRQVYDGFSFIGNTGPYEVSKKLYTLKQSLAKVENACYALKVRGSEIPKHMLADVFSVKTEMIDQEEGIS
The assay is described as follows: Inhibition of wild type His-tagged translin/trax E126A mutant (unknown origin) coexpressed in Escherichia coli BL21 cells using RNase Alert as substrate at 30 uM incubated for 10 mins prior to substrate addition monitored over 60 mins by fluorescence assay.
Regarding `O=C(O[C@@H]1Cc2c(O)cc(O)cc2O[C@@H]1c1cc(O)c(O)c(O)c1)c1cc(O)c(O)c(O)c1`, the inhibition – broadly, the change of the read-out against control, counted positive when it falls – stood at 88%.

As to `CCCCC(CC)CNC(=N)NC(=N)NCCCCCCNC(=N)NC(=N)NCC(CC)CCCC` (stereo unspecified), the inhibition turned out to be 103%.

`O=C(Oc1cc(O)cc2c1C[C@@H](OC(=O)c1cc(O)c(O)c(O)c1)[C@@H](c1cc(O)c(O)c(O)c1)O2)c1cc(O)c(O)c(O)c1`: the inhibition came to 83%.

With `Cc1ccc(C(=O)Nc2ccc(S(=O)(=O)O)c3cc(S(=O)(=O)O)cc(S(=O)(=O)O)c23)cc1NC(=O)c1cccc(NC(=O)Nc2cccc(C(=O)Nc3cc(C(=O)Nc4ccc(S(=O)(=O)O)c5cc(S(=O)(=O)O)cc(S(=O)(=O)O)c45)ccc3C)c2)c1`, the inhibition was 61%.

With `Cc1cc(O)c(C=O)c2c1C(=O)Oc1c(C)c(O)c3c(c1O2)C(O)OC3=O` (stereo unspecified), the inhibition came out at 66%.

For the compound `O=c1c(-c2cc(O)c(O)c(O)c2)coc2cc(O)c(O)c(O)c12`, the inhibition was 78%.

As to `COc1cc(C)c2c(c1C=O)Oc1c(c(C)c(O)c3c1C(O)OC3=O)OC2=O` (stereo unspecified), the inhibition came out at 58%.

With `Oc1cc(O)c2c(c1)O[C@H](c1cc(O)c(O)c(O)c1)[C@H](O)C2`, the inhibition came to 68%.

Take `CCCCCCCCCCCCCCCC[n+]1ccccc1`: the inhibition was 56%.

With `O=c1c(O)cc(C2Oc3cc(O)cc(O)c3CC2O)cc2cc(O)c(O)c(O)c12` (stereo unspecified), the inhibition is 75%.

On to `CCCCCCCCCCCCCCCCC(C(=O)O)C(O)(CC(=O)O)C(=O)O` (stereo unspecified), for which the inhibition worked out at 58%.

Take `Oc1c(Cl)cc(Cl)c(Cl)c1Cc1c(O)c(Cl)cc(Cl)c1Cl`: the inhibition stood at 66%.

With `O=C(OC[C@H]1O[C@@H](OC(=O)c2cc(O)c(O)c(OC(=O)c3cc(O)c(O)c(O)c3)c2)[C@H](OC(=O)c2cc(O)c(O)c(OC(=O)c3cc(O)c(O)c(O)c3)c2)[C@@H](OC(=O)c2cc(O)c(O)c(OC(=O)c3cc(O)c(O)c(O)c3)c2)[C@@H]1OC(=O)c1cc(O)c(O)c(OC(=O)c2cc(O)c(O)c(O)c2)c1)c1cc(O)c(O)c(OC(=O)c2cc(O)c(O)c(O)c2)c1`, the inhibition turned out to be 103%.

On to `Oc1cc2c(cc1O)[C@@H]1c3ccc(O)c(O)c3OC[C@]1(O)C2`, for which the inhibition turned out to be 63%.

Take `O=c1oc2c(O)c(O)cc3c(=O)oc4c(O)c(O)cc1c4c23` [ELLAGIC ACID]: the inhibition worked out at 94%.

As to `O=S(=O)(O)c1cc(N=C=S)ccc1/C=C/c1ccc(N=C=S)cc1S(=O)(=O)O`, the inhibition came out at 103%.

`O=c1c(O)c(-c2ccc(O)c(O)c2)oc2cc(O)cc(O)c12`: the inhibition is 58%.

Consider `O=C1C(O)=C(O)C(=O)C(O)=C1O`, for which the inhibition is 66%.

With `CC(C)(O/N=C(\C(=O)N[C@@H]1C(=O)N2C(C(=O)[O-])=C(C[n+]3ccccc3)CS[C@H]12)c1csc(N)n1)C(=O)O`, the inhibition turned out to be 100%.

In the next assay the target is Translin-associated protein X (Homo sapiens, UniProt Q99598, E126A). Description: Inhibition of wild type His-tagged translin/trax E126A mutant (unknown origin) coexpressed in Escherichia coli BL21 cells assessed as reduction in pre-miRNA degradation by gel electrophoresis assay.
Take `O=c1oc2c(O)c(O)cc3c(=O)oc4c(O)c(O)cc1c4c23` [ELLAGIC ACID]: the IC50 (usually the concentration that inhibits the measured activity by half) amounted to 3.5 µM.

The test system of a further assay is T1, Translin-associated protein X (Homo sapiens), Q99598 [E126A]. Description: Inhibition of wild type His-tagged translin/trax E126A mutant (unknown origin) coexpressed in Escherichia coli BL21 cells assessed as increase in Dicer-mediated 5'-gamma32P-ATP labeled pre-miRNA processing at 5 uM after 15 mins by gel electrophoresis assay.
For the compound `O=c1oc2c(O)c(O)cc3c(=O)oc4c(O)c(O)cc1c4c23` [ELLAGIC ACID], the inhibition result is “Active”.
